Data: US6602824B1, “Herbicidal composition and a method of using a naturally-occurring organic compound as a herbicide” (Greener Pastures Development Corp., priority 1999, dated 2003)
Counter-ions that a name gives are not always drawn.

Tests used:
[1] = tested on: rats; details: orally administered to rats; cited from earlier work
[2] = tested on: rats; experiment: LD50, single oral dose administered to rats; details: orally administered to rats; versus sodium chloride

C[N+](C)(C)CC(=O)[O-] [glycine betaine, 1-carboxy-N,N,N-trimethylmethanaminium inner salt]
LD50 [1]: about 11,204 mg per kilogram of rat body we
toxicity relative to ordinary table salt, as reflected by the oral rat LD50 [2]: more than three times less toxic
